Publication PMC10706087, “The Subtype Selectivity in Search of Potent Hypotensive Agents among 5,5-Dimethylhydantoin Derived α1-Adrenoceptors Antagonists” (International Journal of Molecular Sciences, 2023)
Values joined by “and” are separate entries in the source; they are usually repeats but may differ in a detail not shown here. Equal values may be shown once.

Columns and labels:
[1] = biological target: α1-adrenoceptors (α1-ARs), rat cerebral cortex; assay: Radioligand binding assay with [3H]-prazosin, affinity for α1-ARs; details: three independent experiments in duplicates, read-out: α1-adrenoceptor affinity Ki
Experimental: In the first step, all synthesized compounds (1–15) were tested in vitro for their affinity for α1-ARs on rat cerebral cortex by the radioligand binding assay using [^3H]-prazosin as a specific radioligand.
The affinity for α1-ARs was determined by radioligand binding assay on rat cerebral cortex using [3H]-prazosin as a specific radioligand. The brains were homogenized in 20 volumes of an ice-cold 50 mM Tris-HCl buffer (pH 7.6) and were centrifuged (MPW Med. Instruments, Warsaw, Poland) at 20,000× g for 20 min (0–4 °C). The cell pellet was resuspended in the Tris-HCl buffer and centrifuged again. Radioligand-binding assay was performed in plates (MultiScreen/Millipore, Burlington, MA, USA). The final incubation mixture (final volume 300 μL) consisted of 240 μL of the membrane suspension, 30 μL of [3H]-Prazosin (0.2 nM) solution, and 30 μL of the buffer containing seven to eight concentrations (10^−11 to 10^−4 M) of the tested compounds. For measuring the unspecific binding, phentolamine, 10 μM (in the case of [3H]-Prazosin) was applied. The incubation was terminated by rapid filtration over glass fiber filters (Whatman GF/C, Sigma-Aldrich) using a vacuum manifold (Millipore). The filters were then washed twice with the assay buffer and placed in scintillation vials with a liquid-scintillation cocktail. Radioactivity was measured in a WALLAC 1409 DSA liquid-scintillation counter (BioSurplus, San Diego, CA, USA).
(§1) All statistics were performed using GraphPad Prism, Version 6.0 (GraphPad Software, San Diego, CA, USA). In the radioligand binding study, data were analyzed by a one-site curve-fitting equation, and inhibition constants (Ki) values were calculated via the Cheng-Prusoff equation [63]. In functional studies, data were analyzed using a sigmoidal dose-response (variable slope) equation. Arterial blood pressure data were analyzed using a two-way ANOVA with Sidak’s post-hoc test for multiple comparisons. A p < 0.05 was considered statistically significant.

[2] = biological target: T1, human adrenergic receptor α1B (Homo sapiens, UniProt P35368); assay: Intrinsic activity, aequorin luminescence functional assay at α1B-AR; format: cell-based; details: for α1B-AR Profile: agonist/antagonist profile; for IC50: cells expressing aequorin and human α1B, against phenylephrine, means of three independent experiments in duplicates; for Selectivity Ratio α1A/α1B: selectivity for α1B-AR (IC50(α1A-AR)/IC50(α1B-AR))
T1 sequence (P35368 1-520): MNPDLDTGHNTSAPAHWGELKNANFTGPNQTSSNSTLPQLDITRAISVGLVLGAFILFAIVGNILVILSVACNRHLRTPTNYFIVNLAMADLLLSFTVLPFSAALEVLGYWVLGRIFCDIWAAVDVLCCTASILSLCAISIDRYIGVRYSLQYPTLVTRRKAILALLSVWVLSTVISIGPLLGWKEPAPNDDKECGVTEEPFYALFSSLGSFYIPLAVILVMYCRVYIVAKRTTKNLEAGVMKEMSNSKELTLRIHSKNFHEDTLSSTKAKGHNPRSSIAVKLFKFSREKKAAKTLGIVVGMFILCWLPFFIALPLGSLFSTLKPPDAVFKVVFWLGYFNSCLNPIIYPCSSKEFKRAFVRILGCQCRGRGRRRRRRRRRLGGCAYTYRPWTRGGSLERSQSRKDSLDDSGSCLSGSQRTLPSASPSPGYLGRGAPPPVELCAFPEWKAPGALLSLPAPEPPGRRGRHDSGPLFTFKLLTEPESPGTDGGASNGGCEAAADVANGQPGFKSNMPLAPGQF
Experimental: (§2) The subtype selectivity for α1A and α1B was calculated as IC50(α1B-AR)/IC50(α1A-AR) and IC50(α1A-AR)/IC50(α1B-AR) ratio, respectively.
(§3) Intrinsic activity at the α1-AR subtypes studies were performed using the cells expressing mitochondrially-targeted aequorin and one of the human adrenergic receptor α1A or α1B (PerkinElmer, Boston, MA, USA), according to the manufacturer’s instructions. For measurement, frozen cells were thawed and re-suspended in 10 mL of assay buffer containing 5 μM “Coelenterazine h”. This cell suspension was put in a 10 mL Falcon tube, fixed onto a rotating heel, and incubated overnight at rt in the dark (8 rpm; 45° angle). Cells were diluted with Assay Buffer to 5000 cells/20 μL. […] The light emitted was recorded for 20 s. Cells with antagonists were incubated for 15 min at room temperature. […] Luminescence was measured using the multidetection microplate reader (POLARstar Omega, BMG LABTECH, Ortenberg, Germany).
as §1

[3] = tested on: arterial blood pressure of normotensive Wistar rats; assay: Influence on blood pressure in normotensive anesthetized rats after i.v. administration; format: in vivo, rat; details: for Diastolic blood pressure / Systolic blood pressure: 2.0 mg/kg i.v., mean, n = 6; for effect on systolic and diastolic blood pressure (in words): i.v., normotensive anesthetized rats
Experimental: In the next step, the hypotensive activity of novel compounds 1–3, 5–9, and 11–14 was determined after i.v. administration to normotensive anesthetized rats. All results are shown in Supplementary Table S1.
The normotensive rats were anesthetized with thiopental (75 mg/kg) by intraperitoneal injection (i.p.). The left carotid artery was cannulated with a polyethylene tub filled with heparin in saline to facilitate pressure measurements using a PowerLab Apparatus (ADInstruments, Sydney, Australia). Blood pressure was measured immediately before administration of the tested compounds or vehicle—time 0 min (initial blood pressure) and 60 min thereafter. Initial blood pressure before administration of the tested chemicals in all experimental groups was similar. The tested compounds were dissolved in a specific vehicle: ethyl alcohol 5% − kolliphor 5% − water 90%. All tested chemicals were administrated intravenously (i.v.) at a constant volume of 1 mL/kg after 20 min of stabilization period. The compounds were tested at a starting dose of 2 mg/kg. If the hypotensive activity was found, the dose was reduced by half. The dosing was continued until the hypotensive effects disappeared. Urapidil was used as a reference compound.
as §1

[4] = biological target: T2, human adrenergic receptor α1A (Homo sapiens, UniProt P35348); assay: Intrinsic activity, aequorin luminescence functional assay at α1A-AR; format: cell-based; details: for α1A-AR Profile: agonist/antagonist profile; for IC50: cells expressing aequorin and human α1A, against phenylephrine, means of three independent experiments in duplicates; for selectivity for α1A-AR over α1B-AR: from IC50 ratio; for Selectivity Ratio α1B/α1A: selectivity for α1A-AR (IC50(α1B-AR)/IC50(α1A-AR))
T2 sequence (P35348 1-466): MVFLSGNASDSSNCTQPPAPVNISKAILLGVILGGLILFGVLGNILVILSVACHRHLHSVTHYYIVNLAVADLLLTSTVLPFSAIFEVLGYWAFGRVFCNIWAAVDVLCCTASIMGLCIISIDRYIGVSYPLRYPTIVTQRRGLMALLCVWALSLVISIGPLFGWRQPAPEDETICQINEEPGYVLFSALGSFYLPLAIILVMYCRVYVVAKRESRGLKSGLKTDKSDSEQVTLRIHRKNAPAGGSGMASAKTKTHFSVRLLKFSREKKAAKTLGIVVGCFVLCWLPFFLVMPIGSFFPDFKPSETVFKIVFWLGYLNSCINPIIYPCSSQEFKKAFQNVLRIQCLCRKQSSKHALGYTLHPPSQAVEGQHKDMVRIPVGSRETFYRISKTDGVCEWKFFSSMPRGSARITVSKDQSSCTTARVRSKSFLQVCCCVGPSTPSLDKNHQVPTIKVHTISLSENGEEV
Experimental: as §2, §3, §1

[5] = 0 min (initial, before administration)

Row | SMILES | Ki [1] | α1B-AR Profile [2] | IC50 [2] | Selectivity Ratio α1A/α1B [2] | melting point | Diastolic blood pressure [3, 5] | Systolic blood pressure [3, 5] | Diastolic blood pressure ([3]; 5 min) | Systolic blood pressure ([3]; 5 min) | Diastolic blood pressure ([3]; 10 min) | Systolic blood pressure ([3]; 10 min) | Diastolic blood pressure ([3]; 20 min) | Systolic blood pressure ([3]; 20 min) | Diastolic blood pressure ([3]; 30 min) | Systolic blood pressure ([3]; 30 min) | Diastolic blood pressure ([3]; 40 min) | Systolic blood pressure ([3]; 40 min) | Diastolic blood pressure ([3]; 50 min) | Systolic blood pressure ([3]; 50 min) | Diastolic blood pressure ([3]; 60 min) | further results
1 | CC1(C)C(=O)N(Cc2ccc(Cl)cc2Cl)C(=O)N1CC(O)CN1CCN(c2ccccc2C#N)CC1.Cl (centres unmarked) [Compound 11, 3-(2,4-dichlorobenzyl)-1-(3-(4-(2-cyanophenyl)piperazin-1-yl)-2-hydroxypropyl)-5,5-dimethylimidazolidine-2,4-dione hydrochloride] | 26 nM | Antagonist | 359 nM | 0.45 | 147 to 149 °C | 91.7 | 128.5 | 84.0 | 117.0 | 80.7 | 112.8 | 79.7 | 113.0 | 79.8 | 112.5 | 82.0 | 113.8 | 82.3 | 116.3 | 81.7 | Systolic blood pressure ([3]; 60 min): 118.2; effect on systolic and diastolic blood pressure (in words) [3]: no significant changes; α1A-AR Profile [4]: Antagonist; IC50 [4]: 162 nM; selectivity for α1A-AR over α1B-AR [4]: ~ 2 fold; Selectivity Ratio α1B/α1A [4]: 2.21
2 | COc1ccccc1N1CCN(CCCN2C(=O)N(Cc3ccc(Cl)cc3Cl)C(=O)C2(C)C)CC1.Cl [Compound 1, 3-(2,4-dichlorobenzyl)-1-(3-(4-(2-methoxyphenyl)piperazin-1-yl)propyl)-5,5-dimethylimidazolidine-2,4-dione hydrochloride] | 31 nM | Antagonist | < 100 nM and < 11 nM and 10.7 nM | 8.46 | 201 to 203 °C | 101.0 | 133.3 | 88.3 | 120.3 | 82.3 | 113.0 | 82.2 | 112.2 | 81.3 | 114.2 | 80.8 | 114.7 | 81.7 | 116.0 | 83.3 | Systolic blood pressure ([3]; 60 min): 117.5; effect on systolic and diastolic blood pressure (in words) [3]: statistically significant reduction; α1A-AR Profile [4]: Antagonist; IC50 [4]: < 100 nM and 90.6 nM; Selectivity Ratio α1B/α1A [4]: 0.12
3 | CC1(C)C(=O)N(Cc2ccc(Cl)cc2Cl)C(=O)N1CCCN1CCN(c2cccc(Cl)c2Cl)CC1.Cl [Compound 2, 3-(2,4-dichlorobenzyl)-1-(3-(4-(2,3-dichlorophenyl)piperazin-1-yl)propyl)-5,5-dimethylimidazolidine-2,4-dione hydrochloride] | 535 nM | Antagonist | 1150 nM | 1.51 | 185 to 187 °C | 100.7 | 129.3 | 98.5 | 126.7 | 96.8 | 124.2 | 92.8 | 121.7 | 90.3 | 121.2 | 89.3 | 120.2 | 88.0 | 120.3 | 88.0 | Systolic blood pressure ([3]; 60 min): 119.3; α1A-AR Profile [4]: Antagonist; IC50 [4]: 1730 nM; Selectivity Ratio α1B/α1A [4]: 0.66
4 | COc1ccccc1N1CCN(CC(O)CN2C(=O)N(Cc3ccc(Cl)cc3Cl)C(=O)C2(C)C)CC1.Cl (centres unmarked) [Compound 13, 3-(2,4-dichlorobenzyl)-1-(2-hydroxy-3-(4-(2-methoxyphenyl)piperazin-1-yl)propyl)-5,5-dimethylimidazolidine-2,4-dione hydrochloride] | 29 nM | Antagonist | 331 nM | 0.42 | 144 to 146 °C | 98.0 | 130.7 | 61.2 | 102.8 | 70.8 | 107.7 | 77.3 | 109.3 | 82.2 | 112.7 | 82.8 | 113.3 | 82.2 | 117.2 | 83.7 | Systolic blood pressure ([3]; 60 min): 118.0; effect on systolic and diastolic blood pressure (in words) [3]: statistically significant reduction; α1A-AR Profile [4]: Antagonist; IC50 [4]: 139 nM; selectivity for α1A-AR over α1B-AR [4]: ~ 2 fold; Selectivity Ratio α1B/α1A [4]: 2.39
